Here are results for one molecule from US20250144032A1, “POLY(BETA-AMINO ESTER) MICROPARTICLES FOR MICRONUTRIENT FORTIFICATION” (Massachusetts Institute of Technology, priority 2021, published 2025).

This series can be described thus: Boiling stability of micronutrients in water at 100 °C (simulated cooking). In kind it is physicochemical.

Description: To evaluate the effects on VA stabilization, VA (10% wt) was encapsulated with MPs fabricated from PAE_C, PAE_D, or PAE_E. The resulting MPs were tested in boiling water for 2 hours.
The boiling stability of micronutrients in PAE MP was studied in water at 100° C. At each time point, samples were lyophilized to obtain the boiled product.
High-performance liquid chromatography (HPLC), inductively coupled plasma-optical emission spectrometer (ICP-OES), and colorimetric assay kits were used for micronutrient quantification.

Turning to `CCCCCCCCCCCCCCCC(=O)OC/C=C(C)/C=C/C=C(C)/C=C/C1=C(C)CCCC1(C)C` [VA, retinyl palmitate], the “VA recovered after boiling for 0.5 h” value was “less than 20%”.
